Test results from patent US20140096284A1, “METHOD FOR THE DELIVERY OF MOLECULES LYOPHILIZED ONTO MICROPARTICLES TO PLANT TISSUES” (priority 2012, published 2014).

Tests used:
[1] = tested on: onion epidermis tissue; assay: Control: solution deposited or incubated on onion epidermis tissue without coated projectiles; assay type: cell-based; settings: solution on the surface of onion epidermis tissue
Experimental: The dye bromophenol blue was used to test the ability of the system to deliver a chemical. As a control, a saturated solution of the dye (10 μL of a 100 μg μL^−1 mg) was deposited with a pipette on top of onion epidermis tissue. […] For the bromophenol blue delivery, the saturated solution was mixed with 0.6 μm gold microcarriers and an aliquot was deposited over a macrocarrier set. This macrocarrier set was frozen in liquid nitrogen for 5-10 minutes and then lyophilized for an hour using a lyophilizer. This macrocarrier set was subsequently used to bombard onion epidermis tissue. […] The amount of dye delivered to each cell was different, and as a consequence, different shades of purple could be observed in the bombarded tissue (FIG. 3C).
Protein delivery can be considered a difficult challenge because proteins could be subjected to denaturation during the delivery process. […] This protein will not fluoresce if denatured (Ward and Bokman, 1982). As a control, to test if the protein could be diffused into plant cells, 10 μL of a 100 ng/μL eGFP solution were incubated for 30 minutes on the surface of intact onion epidermis tissue or bombarded with bare 0.6 μm gold microparticles. […] Lyophilization of eGFP onto 0.6 μm gold microcarriers was done using 2.5 μL of 1 μg μL^−1 solution of the protein and 60 μg of microcarriers per shot.

[2] = tested on: onion epidermis tissue; assay: Biolistic delivery of molecules lyophilized onto 0.6 μm gold microcarriers to onion epidermis tissue; assay type: cell-based; settings: lyophilized onto 0.6 μm gold, observed about 30 minutes after bombardment
Experimental: 2 μL of 0.6 μm gold particle stock was mixed with 1 μg of GFP plasmid pLMNC95 or 2 μL of a 400 ng/μL, TRITC-BSA solution. The mixture was poured on a macrocarrier, frozen in liquid nitrogen and freeze-dry for 1 hour prior to onion epidermis tissue bombardment.
Onion epidermis tissue was obtained from the scale leaves of white onion bulbs. Rectangular (3×2.5 cm) pieces were peeled right before the bombardment and placed in solid agar media (0.5 mM of 2-(N-morpholino)ethanesulfonic acid (MES), 15 g L^−1 Bacto agar (BD), pH 5.7) with the peeled side upwards. For quantitative measurements, epidermis pieces of the same scale leaf were distributed among treatments. Tobacco leaves (Nicotiana tabacum var. Petite Havana) were obtained from 3-6 week old in vitro grown plants on MS media (MS medium (Murashige and Skoog, 1962), 2% sucrose, 2.5 g L^−1 gelrite, pH 5.7). Leaves were cut right before bombardment and put with the adaxial surface up on agar media. Hill maize immature embryos were obtained from immature ears provided by the Center for Plant Transformation—Iowa State University. […]
Bright field and fluorescence images were taken using a Zeiss Axio star plus microscope. […] For the green channel fluorescence images a GFP BP filter (Chroma Technology Corp.) was used (λex=470 nm, beam splitter=495 nm and λem=525 nm). […]

[3] = tested on: tobacco leaf cells; assay: Biolistic delivery of molecules lyophilized onto 0.6 μm gold to tobacco leaf tissue; assay type: cell-based, Nicotiana tabacum var. Petite Havana; settings: 250 μg per shot lyophilized onto 0.6 μm gold; tobacco leaves
Experimental: (§1) Onion epidermis tissue was obtained from the scale leaves of white onion bulbs. Rectangular (3×2.5 cm) pieces were peeled right before the bombardment and placed in solid agar media (0.5 mM of 2-(N-morpholino)ethanesulfonic acid (MES), 15 g L^−1 Bacto agar (BD), pH 5.7) with the peeled side upwards. For quantitative measurements, epidermis pieces of the same scale leaf were distributed among treatments. Tobacco leaves (Nicotiana tabacum var. Petite Havana) were obtained from 3-6 week old in vitro grown plants on MS media (MS medium (Murashige and Skoog, 1962), 2% sucrose, 2.5 g L^−1 gelrite, pH 5.7). Leaves were cut right before bombardment and put with the adaxial surface up on agar media. Hill maize immature embryos were obtained from immature ears provided by the Center for Plant Transformation—Iowa State University. Immature embryos (1-2 mm long) were cultured as previously described (Frame et al., 2000).
(§2) The saturated solutions of chemical or biomolecules used were done as follows (data per shot): for bromophenol blue (Sigma) delivery 10 μL of a 100 μg 1 μL^−1 mg solution were used. For plasmid DNA delivery, 2 μL of a 500 ng μL^−1 solution of the plasmid pLMNC95 (Luke Mankin and Thompson, 2001) were used for GFP expression. For mCherry expression linear dsDNA, the plasmid ER-rk (Nelson et al., 2007) was digested with the restriction enzymes SacI-HindIII. […]

[4] = tested on: onion epidermis tissue; assay: Fluorescein diacetate staining, count of dead cells after bombardment; assay type: cell-based; settings: 250 μg per shot
Experimental: Onion epidermis tissues were submerged in 10 mL of MS liquid media to which 100 μL of a 5 mg mL^−1 of fluorescein diacetate (Alfa Aesar) solution in acetone were added. The samples were incubated for 2-5 minutes and directly observed under the green channel filter of the fluorescence microscope. For quantitative measurements, 12 images (10.5×8 mm) were taken with the 5× microscope objective scattered every 0.5 cm (4 columns×3 rows). The total amount of dead cells found on each image was counted.
The high concentration of protein used per shot (250 μg per shot) and the lyophilization process could cause cell death by: (1) physical damage of the potential clumps produced after lyophilizing protein and microparticles and (2) excess of intracellular protein delivery reaching toxic levels. To assess cellular death, onion epidermis tissues were stained with fluorescein diacetate, which stains in fluorescent green the living cells, while the dead ones remain dark (FIG. 7A). […]
As another example of active enzyme delivery, trypsin and RNAse A were chosen. […] The number of dead cells was measured using fluorescein diacetate staining in samples not bombarded, bombarded only with 0.6 μm gold or with 200 μg of trypsin or 40 μg of RNAse per shot. […]

[5] = tested on: maize immature embryos; assay: Biolistic delivery of molecules lyophilized onto 0.6 μm gold to maize immature embryos; assay type: cell-based; settings: 250 μg per shot lyophilized onto 0.6 μm gold; maize Hi II immature embryo scutella
Experimental: as §1, §2

Compound	permeation or diffusion into cells without coated projectiles [1]	intracellular delivery after bombardment [2]	protein delivery (red fluorescence) [3]	number of dead cells compared with bombardment without the protein ([4]; 1 day after bombardment, differences were not significant)	viability of cells showing protein delivery ([4]; stained 1 day after bombardment)	protein delivery (red fluorescence) [5]
O=S1(=O)OC(c2cc(Br)c(O)c(Br)c2)(c2cc(Br)c(O)c(Br)c2)c2ccccc21 [bromophenol blue, reference compound]	did not permeate	several cells were showing bluish-purple coloration				
tetramethylrhodamine isothiocyanate labeled bovine serum albumin [TRITC-BSA]		successfully delivered	delivery could be observed	higher	most of the cells showing TRITC-BSA delivery were alive	delivery could be observed
